Measured values from ChEMBL document CHEMBL4000149, “The effect of glycine replacement with flexible ω-amino acids on the antimicrobial and haemolytic activity of an amphipathic cyclic heptapeptide” (Eur J Med Chem, 2015).
Values after ≈ are worked out from the molar mass of the structure shown. Bridge positions count the residues as written; N and C are the ends. Square brackets hold non-standard residues; d marks the D form. Peptide text beside a SMILES is read from it. ξ: configuration not given here. 2Nal = N[C@@H](Cc1ccc2ccccc2c1)C(=O)O; Aoc = NCCCCCCCC(=O)O; ξDab = NCCC(N)C(=O)O

Assays:
Staphylococcus aureus = test: Antimicrobial activity against methicillin-resistant Staphylococcus aureus ATCC 33591 by tube dilution method; format: functional
Escherichia coli = test: Antimicrobial activity against Escherichia coli ATCC 25922 by tube dilution method; format: functional
Enterococcus faecium = test: Antimicrobial activity against vancomycin-resistant Enterococcus faecium ATCC 700221 by tube dilution method; format: functional
Klebsiella pneumoniae = test: Antimicrobial activity against multidrug-resistant Klebsiella pneumoniae ATCC 700603 by tube dilution method; format: functional
Pseudomonas aeruginosa = test: Antimicrobial activity against Pseudomonas aeruginosa ATCC 27853 by tube dilution method; format: functional
Candida albicans = test: Antifungal activity against Candida albicans ATCC 200955 by tube dilution method; format: functional
Acinetobacter baumannii = test: Antimicrobial activity against multidrug-resistant Acinetobacter baumannii ATCC BAA-1605 by tube dilution method; format: functional
[1] = Toxicity in human erythrocytes assessed as hemolysis after 1 hr; format: cell-based, Erythrocyte
[2] = Toxicity in human erythrocytes assessed as hemolysis at 150 uM after 1 hr; format: cell-based, Erythrocyte; settings: read-out: Activity

Row | SMILES | MIC (Staphylococcus aureus) | MIC (Escherichia coli) | MIC (Enterococcus faecium) | MIC (Klebsiella pneumoniae) | MIC (Pseudomonas aeruginosa) | MIC (Candida albicans) | MIC (Acinetobacter baumannii) | EC50 at 1 hr [1] | hemolysis at 1 h, 150 µM [2]
1 | CC(C)C[C@@H]1NC(=O)[C@H](Cc2ccc3ccccc3c2)NC(=O)[C@H](CCCNC(=N)N)NC(=O)[C@H](CCC(N)=O)NC(=O)CNC(=O)[C@H](Cc2ccc3ccccc3c2)NC(=O)[C@H](CCCNC(=N)N)NC1=O (cyclo([2Nal]GQR[2Nal]LR)) | 128 µM (≈ 129 µg/mL) | > 128 µM | 16 µM (≈ 16.1 µg/mL) | > 128 µM | > 128 µM | 128 µM (≈ 129 µg/mL) | > 128 µM | > 150 µM | < 8%
2 | CC(C)C[C@@H]1NC(=O)CNC(=O)[C@H](Cc2ccc3ccccc3c2)NC(=O)[C@H](CCCCN)NC(=O)[C@H](CC(C)C)NC(=O)[C@H](Cc2ccc3ccccc3c2)NC(=O)[C@H](CCCNC(=N)N)NC1=O (cyclo([2Nal]GLR[2Nal]LK)) | 32 µM (≈ 30.8 µg/mL) | 128 µM (≈ 123 µg/mL) | 16 µM (≈ 15.4 µg/mL) | > 128 µM | 128 µM (≈ 123 µg/mL) | 32 µM (≈ 30.8 µg/mL) | > 128 µM | > 150 µM | 19%
3 | CCCCCC[C@H]1NC(=O)[C@H](Cc2ccc3ccccc3c2)NC(=O)[C@H](CCCNC(=N)N)NC(=O)[C@H](CC(C)C)NC(=O)CNC(=O)[C@H](Cc2ccc3ccccc3c2)NC(=O)[C@H](CCCNC(=N)N)NC1=O | 8 µM (≈ 8.15 µg/mL) | 32 µM (≈ 32.6 µg/mL) | 8 µM (≈ 8.15 µg/mL) | 64 µM (≈ 65.2 µg/mL) | 64 µM (≈ 65.2 µg/mL) | 16 µM (≈ 16.3 µg/mL) | 32 µM (≈ 32.6 µg/mL) | 55 µM | 100%
4 | CC(C)C[C@@H]1NC(=O)CNC(=O)[C@H](Cc2ccc(O)cc2)NC(=O)[C@H](CCCNC(=N)N)NC(=O)[C@H](CC(C)C)NC(=O)[C@H](Cc2ccc3ccccc3c2)NC(=O)[C@H](CCCNC(=N)N)NC1=O (cyclo([2Nal]LRYGLR)) | 128 µM (≈ 122 µg/mL) | > 128 µM | 64 µM (≈ 61.2 µg/mL) | > 128 µM | > 128 µM | > 128 µM | > 128 µM | > 150 µM | 19%
5 | CC(C)C[C@@H]1NC(=O)C(N)CCNC(=O)[C@H](Cc2ccc3ccccc3c2)NC(=O)[C@H](CCCNC(=N)N)NC(=O)[C@H](CC(C)C)NC(=O)[C@H](Cc2ccc3ccccc3c2)NC(=O)[C@H](CCCNC(=N)N)NC1=O (stereo partly drawn) (H-[ξDab]LR[2Nal]LR[2Nal]; lactam 1-C) | 32 µM (≈ 33.1 µg/mL) | 64 µM (≈ 66.1 µg/mL) | 8 µM (≈ 8.27 µg/mL) | 64 µM (≈ 66.1 µg/mL) | 128 µM (≈ 132 µg/mL) | 16 µM (≈ 16.5 µg/mL) | > 128 µM | 265 µM | < 8%
6 | CC(C)C[C@@H]1NC(=O)CNC(=O)[C@H](Cc2ccc3ccccc3c2)NC(=O)[C@H](CCCNC(=N)N)NC(=O)[C@H]([C@@H](C)O)NC(=O)[C@H](Cc2ccc3ccccc3c2)NC(=O)[C@H](CCCNC(=N)N)NC1=O (cyclo([2Nal]GLR[2Nal]TR)) | 128 µM (≈ 125 µg/mL) | 128 µM (≈ 125 µg/mL) | 128 µM (≈ 125 µg/mL) | > 128 µM | > 128 µM | 128 µM (≈ 125 µg/mL) | > 128 µM | > 150 µM | < 8%
7 | CC(C)C[C@@H]1NC(=O)CCCCCCCNC(=O)[C@H](Cc2ccc3ccccc3c2)NC(=O)[C@H](CCCNC(=N)N)NC(=O)[C@H](CC(C)C)NC(=O)[C@H](Cc2ccc3ccccc3c2)NC(=O)[C@H](CCCNC(=N)N)NC1=O (cyclo([2Nal][Aoc]LR[2Nal]LR)) | 2 µM (≈ 2.15 µg/mL) | 16 µM (≈ 17.2 µg/mL) | 2 µM (≈ 2.15 µg/mL) | 16 µM (≈ 17.2 µg/mL) | 32 µM (≈ 34.4 µg/mL) | 4 µM (≈ 4.3 µg/mL) | 8 µM (≈ 8.6 µg/mL) | 22 µM | 100%
